Data on three compounds can be found in ChEMBL document CHEMBL4665643 (Bioorg Med Chem Lett, 2019).

Test [1] concerns the target T1, Mitogen-activated protein kinase 12 (Homo sapiens) (UniProt P53778).
T1 sequence (whole entry): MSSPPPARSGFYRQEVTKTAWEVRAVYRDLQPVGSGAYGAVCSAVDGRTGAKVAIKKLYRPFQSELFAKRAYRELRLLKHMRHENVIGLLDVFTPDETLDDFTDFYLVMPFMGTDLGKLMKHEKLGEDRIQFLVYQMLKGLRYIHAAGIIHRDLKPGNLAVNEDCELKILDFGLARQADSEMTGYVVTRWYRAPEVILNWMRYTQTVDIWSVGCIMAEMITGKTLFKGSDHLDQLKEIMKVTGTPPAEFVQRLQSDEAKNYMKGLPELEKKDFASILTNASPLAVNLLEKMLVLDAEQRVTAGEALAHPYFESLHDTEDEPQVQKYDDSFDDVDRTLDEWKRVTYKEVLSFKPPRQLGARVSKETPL
In words: Inhibition of recombinant human His-tagged full length p38 gamma expressed in baculovirus expression system using Ser/Thr 03 as substrate at 0.1 uM incubated for 60 mins by Z'-Lyte assay relative to control.

Test [2] deals with Mitogen-activated protein kinase 11 (Homo sapiens) (UniProt Q15759). Put plainly: Inhibition of recombinant human His-tagged full length p38 beta expressed in baculovirus expression system using Ser/Thr 15 as substrate at 0.1 uM incubated for 60 mins by Z'-Lyte assay relative to control.
Test [3] addresses T2, Dual specificity protein kinase TTK (Homo sapiens) (UniProt P33981).
T2 sequence (whole entry): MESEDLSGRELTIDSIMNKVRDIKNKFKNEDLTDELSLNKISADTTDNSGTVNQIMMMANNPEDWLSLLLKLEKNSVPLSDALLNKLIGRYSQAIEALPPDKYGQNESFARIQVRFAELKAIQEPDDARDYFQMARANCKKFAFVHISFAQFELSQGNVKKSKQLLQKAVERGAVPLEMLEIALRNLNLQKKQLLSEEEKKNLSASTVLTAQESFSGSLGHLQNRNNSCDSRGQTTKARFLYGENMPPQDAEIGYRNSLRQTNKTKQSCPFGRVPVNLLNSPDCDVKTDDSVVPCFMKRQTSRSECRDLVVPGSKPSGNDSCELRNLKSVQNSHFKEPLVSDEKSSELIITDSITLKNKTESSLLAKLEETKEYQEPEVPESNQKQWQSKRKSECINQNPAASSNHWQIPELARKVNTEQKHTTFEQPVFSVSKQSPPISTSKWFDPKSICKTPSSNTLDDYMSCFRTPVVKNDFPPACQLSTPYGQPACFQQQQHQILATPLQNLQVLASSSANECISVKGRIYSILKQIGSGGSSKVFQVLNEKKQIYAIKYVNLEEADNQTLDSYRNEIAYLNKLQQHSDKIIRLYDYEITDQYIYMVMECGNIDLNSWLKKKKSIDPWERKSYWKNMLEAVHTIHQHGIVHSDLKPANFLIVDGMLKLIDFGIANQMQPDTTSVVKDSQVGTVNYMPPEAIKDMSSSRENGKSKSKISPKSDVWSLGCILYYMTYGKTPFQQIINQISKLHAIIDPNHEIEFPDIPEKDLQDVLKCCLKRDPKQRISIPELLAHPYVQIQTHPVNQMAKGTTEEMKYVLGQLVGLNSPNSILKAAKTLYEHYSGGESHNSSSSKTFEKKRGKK
In words: Inhibition of tracer 236 binding to recombinant human GST-tagged full length TTK expressed in baculovirus expression system at 0.1 uM incubated for 60 mins by Lanthascreen assay relative to control.

In test [4] the target is Tyrosine-protein kinase ABL1 (Homo sapiens) (UniProt P00519). In words: Inhibition of recombinant human His-tagged full length Abl expressed in baculovirus expression system using Tyr 02 as substrate at 0.1 uM incubated for 60 mins by Z'-Lyte assay relative to control.
Test [5] addresses Proto-oncogene tyrosine-protein kinase ROS (Homo sapiens) (UniProt P08922). In words: Inhibition of recombinant human GST-tagged […] ROS1 (1883 to 2347 residues) expressed in baculovirus expression system using Tyr 01 as substrate at 0.1 uM incubated for 60 mins by Z'-Lyte assay relative to control.
The target of test [6] is Mitogen-activated protein kinase 8 (Homo sapiens) (UniProt P45983). Put plainly: Inhibition of recombinant human His-tagged full length JNK1alpha1 expressed in baculovirus expression system using Ser/Thr 04 as substrate at 0.1 uM incubated for 60 mins by Z'-lyte assay relative to control.
Test [7] deals with Tyrosine-protein kinase CSK (Homo sapiens) (UniProt P41240). Put plainly: Inhibition of recombinant human GST-tagged full length CSK expressed in Escherichia coli expression system using Tyr 02 as substrate at 0.1 uM incubated for 60 mins by Z'-Lyte assay relative to control.
Chain of Tyrosine-protein kinase CSK (Homo sapiens) (P41240 2-450 limits assumed): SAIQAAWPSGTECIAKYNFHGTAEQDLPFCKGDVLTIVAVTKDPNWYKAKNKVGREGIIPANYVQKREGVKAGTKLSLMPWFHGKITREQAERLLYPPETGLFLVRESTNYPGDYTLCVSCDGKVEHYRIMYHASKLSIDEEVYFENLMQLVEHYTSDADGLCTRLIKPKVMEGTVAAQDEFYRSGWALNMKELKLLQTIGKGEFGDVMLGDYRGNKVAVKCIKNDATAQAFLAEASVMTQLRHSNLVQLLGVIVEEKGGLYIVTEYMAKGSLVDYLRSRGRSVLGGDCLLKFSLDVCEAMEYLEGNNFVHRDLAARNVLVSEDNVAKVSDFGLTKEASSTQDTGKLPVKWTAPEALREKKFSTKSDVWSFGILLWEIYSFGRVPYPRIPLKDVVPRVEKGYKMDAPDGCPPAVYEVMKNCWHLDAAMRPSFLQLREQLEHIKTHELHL

Chain of Proto-oncogene tyrosine-protein kinase ROS (Homo sapiens) (P08922 whole entry, the tested form may be a part): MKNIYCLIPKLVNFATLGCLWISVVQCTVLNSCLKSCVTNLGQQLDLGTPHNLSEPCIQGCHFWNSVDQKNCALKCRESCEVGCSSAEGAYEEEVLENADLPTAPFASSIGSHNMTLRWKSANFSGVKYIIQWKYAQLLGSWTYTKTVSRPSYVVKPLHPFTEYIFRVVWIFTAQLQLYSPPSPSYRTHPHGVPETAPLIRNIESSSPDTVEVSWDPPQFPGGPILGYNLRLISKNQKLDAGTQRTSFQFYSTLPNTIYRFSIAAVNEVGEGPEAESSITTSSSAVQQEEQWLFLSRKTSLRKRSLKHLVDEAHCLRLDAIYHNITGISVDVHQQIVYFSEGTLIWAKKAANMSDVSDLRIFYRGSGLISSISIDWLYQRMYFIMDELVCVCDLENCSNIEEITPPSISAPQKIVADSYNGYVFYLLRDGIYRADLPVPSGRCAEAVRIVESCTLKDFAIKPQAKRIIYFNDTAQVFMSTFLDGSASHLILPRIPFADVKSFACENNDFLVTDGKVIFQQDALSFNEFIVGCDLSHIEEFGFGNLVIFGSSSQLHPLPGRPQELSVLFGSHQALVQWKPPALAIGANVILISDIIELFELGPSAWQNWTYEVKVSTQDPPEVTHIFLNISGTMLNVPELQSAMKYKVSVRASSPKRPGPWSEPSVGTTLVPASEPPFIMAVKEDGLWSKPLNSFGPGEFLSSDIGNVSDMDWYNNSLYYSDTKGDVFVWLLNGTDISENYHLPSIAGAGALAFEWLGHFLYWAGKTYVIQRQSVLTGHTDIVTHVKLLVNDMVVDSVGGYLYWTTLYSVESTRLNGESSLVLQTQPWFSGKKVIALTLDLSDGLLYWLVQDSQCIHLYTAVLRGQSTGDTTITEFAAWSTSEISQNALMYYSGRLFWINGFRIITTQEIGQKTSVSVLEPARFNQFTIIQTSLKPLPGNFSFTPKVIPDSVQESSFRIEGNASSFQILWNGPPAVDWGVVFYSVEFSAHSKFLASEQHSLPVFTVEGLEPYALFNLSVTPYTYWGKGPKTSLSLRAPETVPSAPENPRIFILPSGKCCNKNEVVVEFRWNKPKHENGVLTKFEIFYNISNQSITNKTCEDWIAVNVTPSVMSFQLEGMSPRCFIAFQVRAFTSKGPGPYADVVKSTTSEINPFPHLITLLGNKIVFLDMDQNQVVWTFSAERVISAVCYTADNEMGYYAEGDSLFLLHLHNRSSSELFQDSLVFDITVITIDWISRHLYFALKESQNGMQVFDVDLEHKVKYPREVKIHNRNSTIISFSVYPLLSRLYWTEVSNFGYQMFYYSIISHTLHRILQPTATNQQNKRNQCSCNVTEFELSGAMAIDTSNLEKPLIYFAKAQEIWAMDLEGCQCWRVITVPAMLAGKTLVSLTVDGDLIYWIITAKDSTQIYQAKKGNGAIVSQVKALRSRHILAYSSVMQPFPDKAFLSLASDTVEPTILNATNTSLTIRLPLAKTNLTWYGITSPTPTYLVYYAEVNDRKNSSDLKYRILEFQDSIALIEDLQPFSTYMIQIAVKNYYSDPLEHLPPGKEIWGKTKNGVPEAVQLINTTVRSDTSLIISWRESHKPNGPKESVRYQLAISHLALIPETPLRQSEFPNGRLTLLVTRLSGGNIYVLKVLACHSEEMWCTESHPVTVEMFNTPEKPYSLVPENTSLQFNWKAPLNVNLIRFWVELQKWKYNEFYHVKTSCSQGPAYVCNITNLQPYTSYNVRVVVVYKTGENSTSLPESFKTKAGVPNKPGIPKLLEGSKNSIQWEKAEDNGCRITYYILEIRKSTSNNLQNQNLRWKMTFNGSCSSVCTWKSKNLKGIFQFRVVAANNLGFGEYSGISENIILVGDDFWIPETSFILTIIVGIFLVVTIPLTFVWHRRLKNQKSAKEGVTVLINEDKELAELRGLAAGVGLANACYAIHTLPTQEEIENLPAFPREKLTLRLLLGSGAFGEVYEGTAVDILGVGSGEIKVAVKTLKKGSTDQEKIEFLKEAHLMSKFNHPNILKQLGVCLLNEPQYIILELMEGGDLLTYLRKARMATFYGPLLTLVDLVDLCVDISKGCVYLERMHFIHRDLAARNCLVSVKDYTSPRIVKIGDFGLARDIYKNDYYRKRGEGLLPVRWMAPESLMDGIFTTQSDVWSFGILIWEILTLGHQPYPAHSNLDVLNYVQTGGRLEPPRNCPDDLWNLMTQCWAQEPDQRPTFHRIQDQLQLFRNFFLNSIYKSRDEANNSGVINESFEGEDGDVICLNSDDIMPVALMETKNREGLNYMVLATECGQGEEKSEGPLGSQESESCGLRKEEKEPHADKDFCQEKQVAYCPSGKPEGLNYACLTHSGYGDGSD
Chain of Mitogen-activated protein kinase 8 (Homo sapiens) (P45983 whole entry): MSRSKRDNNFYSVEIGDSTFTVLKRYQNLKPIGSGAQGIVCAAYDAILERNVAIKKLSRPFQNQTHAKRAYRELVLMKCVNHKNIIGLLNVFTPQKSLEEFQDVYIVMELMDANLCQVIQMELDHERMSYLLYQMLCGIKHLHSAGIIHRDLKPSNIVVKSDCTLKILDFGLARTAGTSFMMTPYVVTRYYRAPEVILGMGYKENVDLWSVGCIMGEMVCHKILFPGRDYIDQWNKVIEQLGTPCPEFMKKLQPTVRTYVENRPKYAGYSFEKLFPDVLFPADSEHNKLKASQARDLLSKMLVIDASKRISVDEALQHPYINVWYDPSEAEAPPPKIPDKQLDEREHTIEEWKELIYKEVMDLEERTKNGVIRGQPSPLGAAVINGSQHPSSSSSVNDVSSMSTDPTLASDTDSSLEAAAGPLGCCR
Chain of Mitogen-activated protein kinase 11 (Homo sapiens) (Q15759 whole entry): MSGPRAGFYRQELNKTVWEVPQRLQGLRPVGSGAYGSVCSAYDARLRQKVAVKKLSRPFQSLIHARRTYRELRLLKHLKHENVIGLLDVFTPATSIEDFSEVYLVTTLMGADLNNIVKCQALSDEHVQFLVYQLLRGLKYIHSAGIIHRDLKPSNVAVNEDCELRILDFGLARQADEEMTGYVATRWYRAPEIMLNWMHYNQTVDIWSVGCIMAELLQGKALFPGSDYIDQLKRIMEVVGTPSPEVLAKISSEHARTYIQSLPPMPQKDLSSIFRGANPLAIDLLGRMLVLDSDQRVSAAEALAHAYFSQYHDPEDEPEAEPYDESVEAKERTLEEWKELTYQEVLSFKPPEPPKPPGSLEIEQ
Chain of Tyrosine-protein kinase ABL1 (Homo sapiens) (P00519 whole entry, the tested form may be a part): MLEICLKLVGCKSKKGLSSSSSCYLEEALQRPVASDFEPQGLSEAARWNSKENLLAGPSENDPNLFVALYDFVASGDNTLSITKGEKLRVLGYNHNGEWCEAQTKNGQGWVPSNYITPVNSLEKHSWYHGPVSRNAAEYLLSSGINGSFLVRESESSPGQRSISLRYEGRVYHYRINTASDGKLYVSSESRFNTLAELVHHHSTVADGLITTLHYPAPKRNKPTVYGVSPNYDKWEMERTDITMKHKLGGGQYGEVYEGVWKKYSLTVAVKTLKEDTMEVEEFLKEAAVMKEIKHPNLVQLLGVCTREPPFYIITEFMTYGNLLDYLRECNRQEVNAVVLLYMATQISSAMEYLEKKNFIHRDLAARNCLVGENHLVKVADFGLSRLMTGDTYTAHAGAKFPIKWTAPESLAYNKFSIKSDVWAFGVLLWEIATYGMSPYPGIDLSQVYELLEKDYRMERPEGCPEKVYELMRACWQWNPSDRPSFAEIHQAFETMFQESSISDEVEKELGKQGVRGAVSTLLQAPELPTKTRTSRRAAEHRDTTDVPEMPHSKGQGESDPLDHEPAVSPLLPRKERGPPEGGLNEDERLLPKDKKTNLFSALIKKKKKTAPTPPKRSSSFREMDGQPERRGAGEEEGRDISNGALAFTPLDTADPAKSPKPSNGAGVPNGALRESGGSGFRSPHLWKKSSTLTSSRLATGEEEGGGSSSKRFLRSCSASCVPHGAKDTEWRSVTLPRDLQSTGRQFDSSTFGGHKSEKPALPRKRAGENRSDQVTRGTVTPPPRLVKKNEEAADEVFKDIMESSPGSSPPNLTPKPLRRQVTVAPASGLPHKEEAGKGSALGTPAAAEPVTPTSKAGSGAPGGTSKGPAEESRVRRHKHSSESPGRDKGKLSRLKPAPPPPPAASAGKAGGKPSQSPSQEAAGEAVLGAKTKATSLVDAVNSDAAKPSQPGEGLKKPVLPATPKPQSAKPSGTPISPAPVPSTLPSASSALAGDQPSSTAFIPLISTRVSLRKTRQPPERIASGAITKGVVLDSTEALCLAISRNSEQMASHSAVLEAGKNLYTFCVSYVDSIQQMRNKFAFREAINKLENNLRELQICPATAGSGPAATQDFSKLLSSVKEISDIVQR

In the case of `O=C(Nc1c[nH]nc1-c1cc(Cl)ccc1OC(F)F)c1cnn2cccnc12`, the inhibition in test [1] was -1%; in test [2], 9%; in test [3] it was 4%; in test [4], 32%; in test [5], 38%; in test [6] it was 11%. In test [7], the inhibition was -2%.

With `Cn1cc(NC(=O)c2cnn3cccnc23)c(-c2cc(Cl)ccc2OC(F)F)n1`, the inhibition came to 4% in test [1]; 11% in test [2]; 5% in test [3]; 10% in test [4]; 62% in test [5]; 11% in test [6]. Also, the inhibition in test [7] was found to be 2%.

Take `O=C(Nc1c[nH]nc1-c1cc2ccccc2cc1OC(F)F)c1cnn2cccnc12`: the inhibition in test [1] was 5%; in test [2] it was 5%; in test [3], -3%; in test [4] it was 11%; in test [5] it was 29%; in test [6], -5%. In addition, the inhibition in test [7] came out at 3%.
